{"source": "patent US20200368312A1", "about": "(priority 2017, published 2020)", "assay_type_in_all_cases": "cell-based", "key": {"P. anaerobius": {"tested_on": "P. anaerobius", "assay": "Broth microdilution MIC, P. anaerobius (Table 7)", "settings": "P. anaerobius MMX 1208 ATCC 27337"}, "P. micros": {"tested_on": "P. micros", "assay": "Broth microdilution MIC, P. micros (Table 7)", "settings": "P. micros MMX 3546"}, "Clostridium difficile": {"tested_on": "Clostridium difficile", "assay": "Broth microdilution MIC, C. difficile, anaerobic, supplemented Brucella Broth (Example 11, Table 7)"}, "S. hominis (CoNS)": {"tested_on": "S. hominis (CoNS)", "assay": "Broth microdilution MIC, S. hominis (CoNS) (Table 7)", "settings": "S. hominis (CoNS) MMX 667 ATCC 27844"}, "S. lugdenensis (CoNS)": {"tested_on": "S. lugdenensis (CoNS)", "assay": "Broth microdilution MIC, S. lugdenensis (CoNS) (Table 7)", "settings": "S. lugdenensis (CoNS) MMX 8724"}, "S. epidermidis (CoNS)": {"tested_on": "S. epidermidis (CoNS)", "assay": "Broth microdilution MIC, S. epidermidis (CoNS) (Table 7)"}, "Enterococci": {"tested_on": "Enterococci"}, "S. haemolyticus (CoNS)": {"tested_on": "S. haemolyticus (CoNS)", "assay": "Broth microdilution MIC, S. haemolyticus (CoNS) (Table 7)", "settings": "S. haemolyticus (CoNS) MMX 529 ATCC 29970"}, "C. perfringens": {"tested_on": "C. perfringens", "settings": "C. perfringens MMX 8351 ATCC 13124"}, "E. lenta": {"tested_on": "E. lenta", "assay": "Broth microdilution MIC, E. lenta (Table 7)", "settings": "E. lenta MMX 1287 ATCC 43055"}, "Staphylococcus aureus": {"tested_on": "Staphylococcus aureus", "assay": "microbe, parasite or virus in culture", "settings": "for MIC: Staphylococcus aureus"}, "P. acnes": {"tested_on": "P. acnes", "assay": "Broth microdilution MIC, P. acnes (Table 7)"}, "Streptococci": {"tested_on": "Streptococci", "assay": "Broth microdilution MIC, Streptococci (Example 11, Table 7)"}}, "note": "Where two headings read alike, the source gives them in different places."}
{"smiles": "CN(C)c1cc(NC(=O)CNC(C)(C)C)c(O)c2c1C[C@H]1C[C@H]3[C@H](N(C)C)C(O)=C(C(N)=O)C(=O)[C@@]3(O)C(O)=C1C2=O", "note": "[Tigecycline]", "values": [{"measurement": "MIC", "setting": "P. anaerobius", "result": 0.03, "unit": "µg/mL"}, {"measurement": "MIC", "setting": "P. micros", "result": 0.015, "unit": "µg/mL"}, {"measurement": "MIC", "setting": "Clostridium difficile; C. difficile MMX 4381 ATCC 700057, toxinAB-negative", "result": 0.18, "unit": "µg/mL"}, {"measurement": "MIC", "setting": "Clostridium difficile; C. difficile MMX 4994 ATCC BAA-1805, ribotype 027", "result": 0.03, "unit": "µg/mL"}, {"measurement": "MIC", "setting": "Clostridium difficile; C. difficile MMX 5668 ATCC BAA-1870, NAP1/027", "result": 0.03, "unit": "µg/mL"}, {"measurement": "MIC", "setting": "S. hominis (CoNS)", "result": 0.12, "unit": "µg/mL"}, {"measurement": "MIC", "setting": "S. lugdenensis (CoNS)", "result": 0.06, "unit": "µg/mL"}, {"measurement": "MIC", "setting": "S. epidermidis (CoNS); S. epidermidis (CoNS) MMX 762, MRSE", "result": 0.06, "unit": "µg/mL"}, {"measurement": "MIC", "setting": "S. epidermidis (CoNS); S. epidermidis (CoNS) MMX 5145, MRSE", "result": 0.12, "unit": "µg/mL"}, {"measurement": "MIC", "setting": "Enterococci; E. faecalis MMX 101 ATCC 29212, VSE", "result": 0.06, "unit": "µg/mL"}, {"measurement": "MIC", "setting": "Enterococci; E. faecalis MMX 1086, VanA VRE", "result": 0.12, "unit": "µg/mL"}, {"measurement": "MIC", "setting": "Enterococci; E. faecalis MMX 4176", "result": 0.12, "unit": "µg/mL"}, {"measurement": "MIC", "setting": "Enterococci; E. faecium MMX 173, VanB VRE", "result": 0.06, "unit": "µg/mL"}, {"measurement": "MIC", "setting": "Enterococci; E. faecium MMX 851, VanA VRE", "result": 0.06, "unit": "µg/mL"}, {"measurement": "MIC", "setting": "Enterococci; E. faecium MMX 4204", "result": 0.06, "unit": "µg/mL"}, {"measurement": "MIC", "setting": "S. haemolyticus (CoNS)", "result": 0.06, "unit": "µg/mL"}, {"measurement": "MIC", "setting": "C. perfringens", "result": 0.12, "unit": "µg/mL"}, {"measurement": "MIC", "setting": "E. lenta", "result": 0.25, "unit": "µg/mL"}, {"measurement": "RV40 activity as compared to Comparator", "setting": "Staphylococcus aureus; MRSA strains (Table 5), […]", "result": 16, "unit": "×"}, {"measurement": "MIC", "setting": "Staphylococcus aureus; ATCC 29213 / MSSA, S. aureus MMX 100 ATCC 29213, MSSA (quality control)", "result": 0.25, "unit": "µg/mL"}, {"measurement": "MIC", "setting": "Staphylococcus aureus; ATCC 33591 / MRSA, S. aureus MMX 5717 ATCC 33591, MRSA", "result": 0.25, "unit": "µg/mL"}, {"measurement": "MIC", "setting": "Staphylococcus aureus; ATCC BAA-1556 / MRSA, S. aureus MMX 4675 ATCC BAA-1556, MRSA", "result": 0.12, "unit": "µg/mL"}, {"measurement": "MIC", "setting": "Staphylococcus aureus; ATCC BAA-1756 / MRSA, S. aureus MMX 2011 ATCC BAA-1756, MRSA", "result": 0.12, "unit": "µg/mL"}, {"measurement": "MIC", "setting": "Staphylococcus aureus; MRSA, S. aureus MMX 2010, MRSA", "result": 0.09, "unit": "µg/mL"}, {"measurement": "MIC", "setting": "Staphylococcus aureus; MRSA, S. aureus MMX 3982, MRSA", "result": 0.185, "unit": "µg/mL"}, {"measurement": "MIC", "setting": "Staphylococcus aureus; MRSA, S. aureus MMX 5985, MRSA", "result": 0.185, "unit": "µg/mL"}, {"measurement": "MIC", "setting": "Staphylococcus aureus; MRSA, S. aureus MMX 5999, MRSA", "result": 0.12, "unit": "µg/mL"}, {"measurement": "MIC", "setting": "Staphylococcus aureus; MRSA, S. aureus MMX 7899, MRSA", "result": 0.12, "unit": "µg/mL"}, {"measurement": "MIC", "setting": "Staphylococcus aureus; MRSA, S. aureus MMX 7900, MRSA", "result": 0.185, "unit": "µg/mL"}, {"measurement": "MIC", "setting": "Staphylococcus aureus; MRSA, S. aureus MMX 7901, MRSA", "result": 0.12, "unit": "µg/mL"}, {"measurement": "MIC", "setting": "Staphylococcus aureus; MRSA, S. aureus MMX 7902, MRSA", "result": 0.12, "unit": "µg/mL"}, {"measurement": "MIC", "setting": "Staphylococcus aureus; MRSA, S. aureus MMX 7903, MRSA", "result": 0.12, "unit": "µg/mL"}, {"measurement": "MIC", "setting": "Staphylococcus aureus; MSSA, S. aureus MMX 2490, MSSA", "result": 0.12, "unit": "µg/mL"}, {"measurement": "MIC", "setting": "Staphylococcus aureus; MSSA, S. aureus MMX 7907, MSSA", "result": 0.12, "unit": "µg/mL"}, {"measurement": "MIC", "setting": "Staphylococcus aureus; MSSA, S. aureus MMX 7908, MSSA", "result": 0.12, "unit": "µg/mL"}, {"measurement": "MIC", "setting": "Staphylococcus aureus; S. aureus MMX 4665, hVISA", "result": 0.25, "unit": "µg/mL"}, {"measurement": "MIC", "setting": "Staphylococcus aureus; S. aureus MMX 5989, Mu3, hVISA", "result": 0.75, "unit": "µg/mL"}, {"measurement": "MIC", "setting": "Staphylococcus aureus; VISA, S. aureus MMX 1723, Mu50", "result": 0.5, "unit": "µg/mL"}, {"measurement": "MIC", "setting": "Staphylococcus aureus; VISA, S. aureus MMX 2124, VISA, DaptoNS", "result": 0.045, "unit": "µg/mL"}, {"measurement": "MIC", "setting": "Staphylococcus aureus; VISA, S. aureus MMX 4658, VISA", "result": 0.12, "unit": "µg/mL"}, {"measurement": "MIC", "setting": "Staphylococcus aureus; VISA, S. aureus MMX 4660, VISA", "result": 0.09, "unit": "µg/mL"}, {"measurement": "MIC", "setting": "P. acnes; P. acnes MMX 7942 ATCC 6919", "result": 0.03, "unit": "µg/mL"}, {"measurement": "MIC", "setting": "P. acnes; P. acnes MMX 7946 ATCC 11827", "result": 0.03, "unit": "µg/mL"}, {"measurement": "MIC", "setting": "Streptococci; S. agalactiae MMX 4088", "result": 0.03, "unit": "µg/mL"}, {"measurement": "MIC", "setting": "Streptococci; S. agalactiae MMX 4115, erm^R", "result": 0.03, "unit": "µg/mL"}, {"measurement": "MIC", "setting": "Streptococci; S. anginosus (AGS) MMX 1201 ATCC 33397", "result": 0.008, "unit": "µg/mL"}, {"measurement": "MIC", "setting": "Streptococci; S. constellatus (AGS) MMX 5677", "result": 0.03, "unit": "µg/mL"}, {"measurement": "MIC", "setting": "Streptococci; S. dysgalactiae MMX 5121", "result": 0.06, "unit": "µg/mL"}, {"measurement": "MIC", "setting": "Streptococci; S. dysgalactiae MMX 5123", "result": 0.015, "unit": "µg/mL"}, {"measurement": "MIC", "setting": "Streptococci; S. dysgalactiae MMX 5124", "result": 0.12, "unit": "µg/mL"}, {"measurement": "MIC", "setting": "Streptococci; S. mitis (MGS) MMX 5798", "result": 0.03, "unit": "µg/mL"}, {"measurement": "MIC", "setting": "Streptococci; S. oralis (MGS) MMX 5821", "result": 0.06, "unit": "µg/mL"}, {"measurement": "MIC", "setting": "Streptococci; S. pneumoniae MMX 432, PRSP", "result": 0.03, "unit": "µg/mL"}, {"measurement": "MIC", "setting": "Streptococci; S. pneumoniae MMX 747", "result": 0.03, "unit": "µg/mL"}, {"measurement": "MIC", "setting": "Streptococci; S. pneumoniae MMX 1195 ATCC 49619, PISP", "result": 0.06, "unit": "µg/mL"}, {"measurement": "MIC", "setting": "Streptococci; S. pyogenes MMX 404 ATCC 19615", "result": 0.015, "unit": "µg/mL"}, {"measurement": "MIC", "setting": "Streptococci; S. pyogenes MMX 946, ermR", "result": 0.015, "unit": "µg/mL"}, {"measurement": "MIC", "setting": "Streptococci; S. pyogenes MMX 8778", "result": 0.03, "unit": "µg/mL"}]}
